# Reference: patent publication US20210070747A1, “2(1H)-QUINOLINONE DERIVATIVE” (priority 2017, published 2021)
# Read-outs that look alike come from different tables or passages of the source.
# Assays:
# [1] = biological target: T1, E. coli DNA gyrase (Escherichia coli, UniProt P0AES6); experiment: Test for evaluating the activity of inhibiting E. coli DNA gyrase enzyme (Method 2, supercoiling, recombinant gyrA/gyrB complex); type: biochemical
# T1 construct: made in house; host or cells: E. coli BL21 (DE3)
# Experimental: The enzymatic activity of E. coli DNA gyrase was measured by a method comprising reacting DNA gyrase and its substrate, relaxed pBR322 (Inspiralis), in the presence of ATP and detecting the post-reaction supercoiled pBR322/relaxed pBR322 ratio with H19.
# Specifically, to 1 ng/μL of relaxed pBR322, E. coli DNA gyrase enzyme (the gyrA or gyrB gene was incorporated into the pET15b plasmid and after expressing them in E. coli BL21 (DE3), purification was performed using a Ni-NTA column to form a complex at room temperature) was added at a final concentration of 0.135 nmol/mL and the mixture was incubated for 60 minutes at room temperature. This reaction was carried out in 20 mmol/L tris-HCl buffered solution (pH 8.0) comprising 0.5 mmol/L ATP, 0.005% bridge 35, 35 mmol/L ammonium acetate, 8 mmol/L magnesium chloride, 4.6% glycerol, and 1 mmol/L dithiothreitol. To the reaction mixture, H19 was added to bring the reaction to an end; thereafter, the supercoiled pBR322/relaxed pBR322 ratio was detected at excitation wavelength/emission wavelength=485 nm/535 nm. An inhibition curve was obtained by allowing the analyte compound to be present at varying concentrations during the reaction described above.
# [2] = test system: E. Coli ATCC 25922; experiment: Test for evaluating antibacterial activity (E. coli), broth microdilution MIC; type: cell-based; conditions: Escherichia coli, ATCC25922; 35° C., 18 hours, cation-adjusted Mueller-Hinton medium
# Experimental: Minimum inhibitory concentration (MIC) was measured using the broth microdilution method described below in accordance with a modification of the standard method specified by CLSI (Clinical & Laboratory Standards Institute).
# Bacterial cells under test were cultured overnight on a heart infusion agar medium, scraped off and suspended at a concentration equivalent to McFarland 0.5 turbidity; the suspension thus obtained was diluted 10 folds to give a liquid inoculum. The inoculum (0.005 mL) was inoculated on a cation-adjusted Mueller-Hinton medium containing the analyte compound and cultured at 35° C. for 18 hours. A minimum drug concentration at which no bacterial growth was macroscopically visible was designated MIC.
# [3] = Method 2, read-out: E. Coli Gyrase supercoiling IC50
SMILES,"IC50 [1, 3]",MIC [2],IC50 [1],"inhibition at 10 µM ([1]; Method 2, at 10000 nM)"
"CNc1cccc2cc(C(=O)Nc3cnc(NCCN4CCN(C)CC4)nc3)c(=O)[nH]c12 [Example 34, 8-(methylamino)-N-(2-{[2-(4-methylpiperazine-1-yl)ethyl]amino}pyrimidine-5-yl)-2-oxo-1,2-dihydroquinoline-3-carboxamide]",23.2 nM,> 64 µg/mL,,
"CNc1cccc2cc(C(=O)Nc3cnc(NCc4csc(N)n4)nc3)c(=O)[nH]c12 [Example 35, N-(2-[[(2-Amino-1,3-thiazol-4-yl)methyl]amino]pyrimidin-5-yl)-8-(methylamino)-2-oxo-1,2-dihydroquinoline-3-carboxamide]",1.47 nM,> 4 µg/mL,,
"CNc1cccc2cc(C(=O)NCCc3noc(=O)[nH]3)c(=O)[nH]c12 [Example 36, 8-(methylamino)-2-oxo-N-[2-(5-oxo-4,5-dihydro-1,2,4-oxadiazole-3-y1)ethyl]-1,2-dihydroquinoline-3-carboxamide]",71.9 nM,> 32 µg/mL,,
"CNc1cccc2cc(C(=O)Nc3ccc(C(=O)NC(CO)CO)cc3)c(=O)[nH]c12 [Example 38, N-{4-[(1,3-dihydroxypropane-2-yl)carbamoyl]phenyl}-8-(methylamino)-2-oxo-1,2-dihydroquinoline-3-carboxamide]",4730 nM,,,
"CNc1cccc2cc(C(=O)Nc3cnc(N4CCC(N)(C(=O)O)CC4)nc3)c(=O)[nH]c12.Cl [Example 39, 4-Amino-1-(5-[[8-(methylamino)-2-oxo-1,2-dihydroquinoline-3-carbonyl]amino]pyrimidin-2-yl)piperidine-4-carboxylic acid-hydrochloride]",,> 8 µg/mL,48.7 nM,
"CNc1cccc2cc(C(=O)Nc3cnc(NCCCN(CCO)CCO)nc3)c(=O)[nH]c12 [Example 41, N-[2-({3-[bis(2-hydroxyethyl)amino]propyl}amino)pyrimidine-5-yl]-8-(methylamino)-2-oxo-1,2-dihydroquinoline-3-carboxamide]",149 nM,> 64 µg/mL,,
"CNc1cc(F)cc2cc(C(=O)N(C)c3cncnc3)c(=O)[nH]c12 [Example 61, 6-fluoro-N-methyl-8-(methylamino)-2-oxo-N-(pyrimidine-5-yl)-1,2-dihydroquinoline-3-carboxamide]",334 nM,,,
"CNc1cc(F)cc2cc(C(=O)Nc3cnc(C(=O)NCCCN4CCOCC4)nc3)c(=O)[nH]c12 [Example 82, 6-fluoro-8-(methylamino)-N-(2-{[3-(morpholine-4-yl)propyl]carbamoyl}pyrimidine-5-yl)-2-oxo-1,2-dihydroquinoline-3-carboxamide]",0.47 nM,0.25 µg/mL,,
"CNc1cc(F)cc2cc(C(=O)Nc3ccc(C(=O)NCCN4CCOCC4)cc3CN(C)C3CCN(C)CC3)c(=O)[nH]c12 [Example 84, 6-fluoro-8-(methylamino)-N-(2-{[methyl(1-methylpiperidine-4-yl)amino]methyl}-4-{[2-(morpholine-4-yl)ethyl]carbamoyl}phenyl)-2-oxo-1,2-dihydroquinoline-3-carboxamide]",11.4 nM,> 32 µg/mL,,
"CNc1cc(F)cc2cc(C(=O)Nc3ccc(C(=O)NCCN4CCOCC4)cc3C)c(=O)[nH]c12 [Example 86, 6-fluoro-8-(methylamino)-N-(2-methyl-4-{[2-(morpholine-4-yl)ethyl]carbamoyl}phenyl)-2-oxo-1,2-dihydroquinoline-3-carboxamide]",34.4 nM,> 4 µg/mL,,
"CNc1cc(F)cc2cc(C(=O)Nc3nccn3C)c(=O)[nH]c12 [Example 87, 6-fluoro-8-(methylamino)-N-(1-methyl-1H-imidazole-2-yl)-2-oxo-1,2-dihydroquinoline-3-carboxamide]",1040 nM,,,
"CNc1cc(F)cc2cc(C(=O)Nc3ccn(C)n3)c(=O)[nH]c12 [Example 88, 6-fluoro-8-(methylamino)-N-(1-methyl-1H-pyrazole-3-yl)-2-oxo-1,2-dihydroquinoline-3-carboxamide]",,,,41%
"CNc1cc(F)cc2cc(C(=O)Nc3ccnn3C)c(=O)[nH]c12 [Example 89, 6-fluoro-8-(methylamino)-N-(1-methyl-1H-pyrazole-5-yl)-2-oxo-1,2-dihydroquinoline-3-carboxamide]",29.9 nM,> 8 µg/mL,,
"CNc1cc(F)cc2cc(C(=O)Nc3cnc(C(=O)NCCN4CCCCC4)nc3)c(=O)[nH]c12.O=CO [Example 90, 6-fluoro-8-(methylamino)-2-oxo-N-(2-{[2-(piperidine-1-yl)ethyl]carbamoyl}pyrimidine-5-yl)-1,2-dihydroquinoline-3-carboxamide-formate]",,> 16 µg/mL,2.45 nM,
"CNc1cc(F)cc2cc(C(=O)Nc3ccc(C(=O)NO)cc3)c(=O)[nH]c12 [Example 92, 6-Fluoro-N-[4-(hydroxycarbamoyl)phenyl]-8-(methylamino)-2-oxo-1,2-dihydroquinoline-3-carboxamide]",2.56 nM,> 4 µg/mL,,
"CCc1cc(C(=O)NCCN2CCOCC2)ccc1NC(=O)c1cc2cc(F)cc(NC)c2[nH]c1=O [Example 94, N-(2-ethyl-4-{[2-(morpholine-4-yl)ethyl]carbamoyl}phenyl)-6-fluoro-8-(methylamino)-2-oxo-1,2-dihydroquinoline-3-carboxamide]",131 nM,> 2 µg/mL,,
"CNc1cc(F)cc2cc(C(=O)Nc3ccc(C(=O)O)cc3CN(C)C3CC3)c(=O)[nH]c12 [Example 97, 3-{[cyclopropyl (methyl)amino]methyl}-4-{[6-fluoro-8-(methylamino)-2-oxo-1,2-dihydroquinoline-3-carbonyl]amino} benzoic acid]",,> 8 µg/mL,0.6 nM,
"CCCCCN(CCCCC)Cc1cc(C(=O)O)ccc1NC(=O)c1cc2cc(F)cc(NC)c2[nH]c1=O [Example 101, 3-[(dipentylamino)methyl]-4-{[6-fluoro-8-(methylamino)-2-oxo-1,2-dihydroquinoline-3-carbonyl]amino} benzoic acid]",0.8 nM,,,
"CNc1cc(F)cc2cc(C(=O)Nc3ccc(C(=O)O)cc3CCC3CCCCC3)c(=O)[nH]c12 [Example 102, 3-(2-cyclohexylethyl)-4-{[6-fluoro-8-(methylamino)-2-oxo-1,2-dihydroquinoline-3-carbonyl]amino} benzoic acid]",,,228 nM,
"CNc1cc(F)cc2cc(C(=O)Nc3ccc(C(=O)O)cc3CN(CCCN(C)C)CCCN(C)C)c(=O)[nH]c12 [Example 105, 3-({bis[3-(dimethylamino)propyl]amino}methyl)-4-{[6-fluoro-8-(methylamino)-2-oxo-1,2-dihydroquinoline-3-carbonyl]amino} benzoic acid]",29.8 nM,> 32 µg/mL,,
"CNc1cc(F)cc2cc(C(=O)Nc3ccc(C(=O)O)cc3CN3CCCC(N)C3)c(=O)[nH]c12.Cl (stereo not drawn) [Example 109, 3-[(3-Aminopiperidin-1-yl)methyl]-4-[[6-fluoro-8-(methylamino)-2-oxo-1,2-dihydroquinoline-3-carbonyl]amino]benzoic acid-hydrochloride]",,> 32 µg/mL,15.1 nM,
"CNc1cc(F)cc2cc(C(=O)Nc3ccc(C(=O)O)cc3CCN(C)C3CCCCC3)c(=O)[nH]c12 [Example 111, 3-{2-[cyclohexyl (methyl)amino]ethyl}-4-{[6-fluoro-8-(methylamino)-2-oxo-1,2-dihydroquinoline-3-carbonyl]amino} benzoic acid]",2.94 nM,> 32 µg/mL,,
"CCCCCN(CCCCC)Cc1cc(C(=O)O)ccc1NC(=O)c1cc2cncc(NC)c2[nH]c1=O [Example 112, 3-[(dipentylamino)methyl]-4-{[8-(methylamino)-2-oxo-1,2-dihydro-1,6-naphthyridine-3-carbonyl]amino}benzoic acid]",4.13 nM,> 64 µg/mL,,
"CNc1cc(F)cc2cc(C(=O)Nc3ccc(C(=O)O)cc3CNC3CCCCC3)c(=O)[nH]c12.O=C(O)C(F)(F)F [Example 113, 3-[(cyclohexylamino)methyl]-4-{[6-fluoro-8-(methylamino)-2-oxo-1,2-dihydroquinoline-3-carbonyl]amino}benzoic acid-trifluoroacetate]",,32 µg/mL,0.26 nM,
"CNc1cc(F)cc2cc(C(=O)Nc3ccc(C(=O)O)cc3N(C)C3CCCCC3)c(=O)[nH]c12 [Example 114, 3-[Cyclohexyl(methyl)amino]-4-[[6-fluoro-8-(methylamino)-2-oxo-1,2-dihydroquinoline-3-carbonyl]amino]benzoic Acid]",339 nM,> 32 µg/mL,,
"CNc1cc(F)cc2cc(C(=O)Nc3ccc(CO)cc3CN(CCO)C3CCCCC3)c(=O)[nH]c12 [Example 124, N-[2-{[cyclohexyl(2-hydroxyethyl)amino]methyl}-4-(hydroxymethyl)phenyl]-6-fluoro-8-(methylamino)-2-oxo-1,2-dihydroquinoline-3-carboxamide]",1.6 nM,,,
